Measured values as given in the METLIN SMRT retention time set (Domingo-Almenara et al. 2019).

assay: gradient 5% acetonitrile 3 min, to 50% in 2 min, to 85% in 15 min, held 3 min, 100 µL/min; conditions: column: Zorbax Extend-C18 2.1 x 50 mm; eluents: water / acetonitrile, 0.1% formic acid
In short: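 A Zorbax Extend-C18 column (2.1 × 50 mm, 1.8 μm) run at 100 μL/min with water and acetonitrile, both containing 0.1% formic acid, separated mixtures of ~100 pure standards. The HPLC was coupled to a quadrupole time-of-flight mass spectrometer operated in positive and negative ionization mode, with dead and dwell volumes of 40 μL and 900 μL. Each retention time was taken from a computationally picked adduct peak that was then manually inspected.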

RP-LC retention time [s]	Structure (SMILES)
843	O=C(Cn1ccn2nc(-c3ccc(F)cc3)c(CO)c2c1=O)Nc1cc(F)ccc1F
758	Cc1cc(N(C)C)nc(N2CCN(C(=O)c3ccc(-c4ccccc4)cc3)CC2)n1
969	CC(C)c1cc(C(=O)Nc2ccccc2)no1
616	CC(C)(C)c1ccc(NC(=O)N2CCN(CCNC(=O)c3cccs3)CC2)cc1
951	O=C(Nc1ccc(F)cc1Cl)c1cnc(-c2ccc(F)cc2)nc1-c1ccncc1
755	Cc1nc(N2CCN(c3ccccn3)CC2)nc2c1C(=O)CC(c1ccc(F)cc1)C2 (centres undefined)
1130	C=CCn1c(=O)c2ccccc2n(Cc2nc(-c3ccc(OC(C)C)cc3)no2)c1=O
773	COC(=O)c1cccc(NC(=O)NCCCn2c(C(F)(F)F)nc3cccnc32)c1
715	Cc1ccc(-c2nc3ccc(C)cn3c2Nc2ccc3c(c2)OCCO3)cc1
1120	COc1ccc(CN2C=C(C(=O)OCc3ccccc3OC)C(C)=NS2(=O)=O)cc1
634	CCn1cc(CCN2CCN(S(=O)(=O)c3ccc(C#N)cc3)CC2)c2cccnc21
1010	CC(C)(C)NC(=O)Cc1cccn1-c1cccc(Cl)c1
1160	O=c1c2cc(-c3ccc(Br)cc3)nn2cnn1Cc1nc(-c2ccc3c(c2)OCO3)no1
895	CCOc1ccc(-n2ccn3cc(-c4cc(OC)ccc4OC)nc3c2=O)cc1
832	Cc1ccc(NC(=O)C2CCCN2S(=O)(=O)c2cc3c(cc2Cl)NC(=O)CO3)cc1C (centres undefined)
1310	CC(C)CCn1nc(-c2nc(-c3cccc(Cl)c3)no2)ccc1=O
774	O=C(NCCc1ccc(Cl)cc1)C1CCN(C(=O)C2Sc3ccccc3NC2=O)CC1 (centres undefined)
726	CC1CCN(S(=O)(=O)c2ccc(-c3nnc(C(=O)NCCN4CCCCCC4)o3)cc2)CC1
703	COc1ccc(CC(=O)NCC2CCN(C(=O)c3cc4ccccc4o3)CC2)cc1OC
779	Cc1ccc(NC(=O)N2C[C@@H](F)C[C@H]2C(=O)N2CCCCC2)c(Cl)c1
880	CCc1nnc(-c2cn(CC(=O)NCc3ccc(SC)cc3)c3ccccc23)o1
900	CCCn1cc(CCNC(=O)Nc2cccc(Cl)c2F)c2cccnc21

RP-LC retention time [s]	Structure (SMILES)
915	COc1ccc(C)cc1NC(=O)N1CCN(c2ccc(=O)n(-c3ccc(C)cc3)n2)CC1
1190	CC(C)Oc1ccc(-c2noc(CN3C(=O)COc4cc(Cl)ccc43)n2)cc1
747	Cc1cc(C)n(-c2ccnc(NCC(C)C)n2)n1
754	CCC(C)N(CC(=O)N1CCc2sccc2C1COc1cccc(F)c1)C(C)=O (centres undefined)
828	Cc1cc(=O)n(CC(=O)Nc2ccc(F)cc2)c(N2CCN(c3ccccc3)CC2)n1
853	CCc1ccccc1NC(=O)N1CCC(n2cnc3c(C)cccc3c2=O)CC1
627	COc1ccc(NC2CC(=O)N(c3ccccc3Cl)C2=O)cc1 (centres undefined)
610	NC1(C(=O)N[C@@H](CCO)c2ccc(Cl)cc2)CCN(c2ncnc3[nH]ccc23)CC1
783	Cc1ccc(Cl)cc1NC(=O)N1CCc2nc(-c3ccccc3)ncc2C1
770	COC(=O)c1c(C)[nH]c(C(=O)N2CCC(CC(=O)NCc3cccc(Cl)c3)CC2)c1C
585	c1cncc(-c2noc(COC3CCCN(C4CCCC4)C3)n2)c1 (centres undefined)
771	CCCNC(=O)c1cc2c(s1)N(C)CCC2
640	O=C(C1CCN(c2nnc(-n3cccc3)s2)CC1)N1CCN(c2ccccn2)CC1
593	Nc1nc(Cl)nc2c1ncn2[C@H]1C[C@H](O)[C@@H](CO)O1
847	O=C(CCCCn1c(=O)c2ccccc2n(Cc2ccccc2)c1=O)NCc1cccs1
819	Cc1ccccc1-c1noc(Cn2c(=O)n(Cc3cccc(Cl)c3)c(=O)c3sccc32)n1
581	Cc1nn(C)cc1S(=O)(=O)Nc1nc2ccc(S(C)(=O)=O)cc2s1
1290	Cc1ccc(-c2ocnc2C(=O)Nc2ccc(Br)cc2F)o1
797	O=C(Cn1cccc(-c2nc(-c3ccc(F)cc3)no2)c1=O)NC1CCCC1
819	COc1ccc(C(=O)Cn2c(=O)n(Cc3ccc4c(c3)OCO4)c(=O)c3ncccc32)cc1
606	CCOC(=O)N1CCN(C(=O)C2CCCN(c3ccc(-c4ccco4)nn3)C2)CC1 (centres undefined)
667	COCCOCc1nc(C2CCCCN2C(=O)NC(C)C)no1 (centres undefined)

RP-LC retention time [s]	Structure (SMILES)
597	Cc1ccc(CN2CCC(CNC(=O)c3c(C)oc4c3C3=NCCN3C=N4)C2)cc1 (centres undefined)
647	Cc1ccc(Cl)cc1NC(=O)N1CCC(N2CCN(Cc3ccccn3)C(=O)C2=O)CC1
1030	CCn1c(=O)c2cc(C(=O)Nc3ccc(OC)cc3OC)nn2c2ccccc21
1090	Cc1ccc(-c2noc(-c3nc(-c4ccncc4)no3)n2)cc1
781	CCC(C)C(=O)N1CCc2[nH]nc(C(=O)NCCCc3ccccc3)c2C1 (centres undefined)
910	CC(NC(=O)c1ccc(-c2cccs2)nc1)c1ccccc1 (centres undefined)
630	COC(=O)c1ccccc1NC(=O)NCCn1c(C)nc2ccccc21
1000	COc1ccccc1NC(=O)Cn1cccc(-c2nc(-c3ccc(Br)cc3)no2)c1=O
871	Cc1cc(C)n(-c2nccnc2SCC(=O)Nc2cccc(Cl)c2C)n1
1200	CCOC(=O)C(CC)n1nc2nc(Nc3ccc(C)c(F)c3)cc(C)n2c1=O (centres undefined)
617	CCC(C)NC(=O)c1cnn(-c2cc(-c3nc(C(C)C)no3)ccn2)c1C (centres undefined)
840	Cc1ccc(N2C=NS(=O)(=O)c3cccnc32)cc1C
622	COc1ccc(Cl)cc1S(=O)(=O)N1CCCC(C(=O)NCc2ccncc2)C1 (centres undefined)
762	CCOC(=O)Cn1cc(S(=O)(=O)N2CCCCC2)ccc1=O
896	Cc1ccc(C(=O)N2CCCC(COc3ccc(C(=O)NC(C)C)cc3)C2)cc1F (centres undefined)
1000	COc1cccc(-c2cc3c(=O)n(Cc4nc(-c5ccccc5)no4)ccn3n2)c1
1060	Cc1noc(C)c1-c1ccc(S(=O)(=O)Nc2ccc(C(C)C)cc2)cc1
698	CCn1cnc2ccc(-c3noc(-c4ccc(OC)c(OC)c4)n3)cc21
718	Clc1ccc(Cc2nc3nc4c(c(N5CCN(c6ccccn6)CC5)n3n2)CCCC4)cc1
1170	CCOc1ccc(-c2nc(Cc3noc(-c4ccccc4OC)n3)c(C)o2)cc1
760	CCC(C)NC(=O)CCCn1c(=O)c2cccn2c2ccccc21 (centres undefined)
863	Cc1cc(-c2nnc(-c3ccco3)o2)c(C)n1CC(=O)NCc1ccccc1Cl

RP-LC retention time [s]	Structure (SMILES)
592	Cc1nn(C(C)C(=O)NCCCN2CCN(C)CC2)c(=O)c2c1sc1ccccc12 (centres undefined)
675	O=C(NC1CCCCCC1)c1ccc2ncnc(N3CCCC3)c2c1
987	Cc1ccc(CNC(=O)c2c(-c3cccc(Br)c3)noc2C)o1
632	CCOc1ccc2nc(N3CCCC(C(=O)NCCCN4CCOCC4)C3)sc2c1 (centres undefined)
861	CCc1noc(NC(C)=O)c1-c1ccc(C)c(S(=O)(=O)N(C)c2ccc(C)cc2)c1
647	CC(C)N1CCN(Cc2nc(Cn3ccn4nc(-c5ccccc5)cc4c3=O)no2)CC1
575	COCC1CN(S(=O)(=O)Cc2ccccc2F)CC12CCNCC2 (centres undefined)
721	O=C1CCN(C(=O)C2(c3ccccc3)CC2)CCCCCCN1
827	O=C(Nc1ccc2c(c1)OCCO2)C1CC(=O)N(CCc2c[nH]c3ccc(Cl)cc23)C1 (centres undefined)
866	CCc1nc2c(NC(=O)c3ccccc3C(F)(F)F)cccn2n1
816	O=C(NCc1ccccc1)c1nnc(-c2ccc(S(=O)(=O)N3CCOCC3)cc2)o1
705	O=C(c1cccs1)N1CCCCC1c1nncn1-c1ccccc1 (centres undefined)
654	CCOC(=O)C1CCC(CNC(=O)Nc2cccn3cnnc23)CC1 (centres undefined)
614	Cc1cccc(C2(O)C(=O)N(CC(=O)N(C)c3ccccc3)c3ccccc32)c1 (centres undefined)
663	COC(=O)c1c(C)[nH]c(C(=O)N2CCCC(C(=O)N3CCCC3)C2)c1C (centres undefined)
1090	Cc1sc(NC(=O)c2ccccc2Br)nc1-c1ccccc1
811	CCCN(CC1CCOC1)C(=O)Nc1ccc(C)cc1C (centres undefined)
948	Cc1nn(C(C)C(=O)NCCC(C)C)c(=O)c2c(C)n(-c3ccccc3)nc12 (centres undefined)
788	O=C(NCc1ccco1)c1cc(-c2cccnc2)nc2ccc(Cl)cc12
673	Cc1ccn2c(=O)c(C(=O)Nc3nc(C)cs3)cnc2c1
634	N#Cc1ccc(S(=O)(=O)N2CCC(Cc3nc(-c4cccnc4)n[nH]3)C2)cc1 (centres undefined)

Structure (SMILES)	RP-LC retention time [s]
Cn1c(=O)n(C)c2cc(CNCCc3ccc(Cl)cc3Cl)ccc21	653
Cn1cc(C(=O)NCc2ccc(F)cc2)c2cccnc21	721
